This note sets out measurements from US6451767B1, “Benzylmaltotriosides as inhibitors of smooth muscle cell proliferation” (Wyeth, priority 1998, dated 2002).

Data set [1] relates to Porcine Smooth Muscle Cell. In words: Cell proliferation using 3H thymidine incorporation. It is filed as cell-based. As to conditions: for IC50: serum/growth factor stimulated cells, 3H thymidine incorporation, 24-36 h, read-out: Porcine Smooth Muscle Cell Antiproliferation IC50; for inhibition at 500 µM: Sus scrofa, read-out: Porcine Smooth Muscle Cell Antiproliferation, % inhibition. How it is done: Effects of Compounds on Cell Proliferation Using ^3H Thymidine Incorporation
Human and porcine smooth muscle cells were tested in early passage (generally passage 3-7) at sub-confluent conditions. Cultures were grown in 16 mm (24 well) multi-well culture dishes in medium 199 supplemented with 10% fetal bovine serum and 2% antibiotic/antimycotic. At sub-confluence, the cells were placed in a defined serum free medium (AIM-V; Gibco) for 24-48 h prior to initiating the experimental protocol.
Compounds were added to each well at 50 fold dilution (20 μL/well) and the plates were incubated for 24-36 h at 37° C. in 5% CO2. Compounds were initially dissolved in 50% ethanol and serially diluted into media. Compounds were routinely evaluated at concentrations from 1 to 100 μM. As a control, grade II porcine intestinal mucosal heparin (sodium salt) was routinely evaluated in all cell preparations at concentrations from 0.1 to 100 μg/mL.
At the completion of the test procedure, plates were placed on ice, washed three times with ice cold phosphate buffered saline (PBS) and incubated in ice cold 10% trichloroacetic acid (TCA) got 30 min to remove acid soluble proteins. Solution was transferred to scintillation vials containing 0.4 N HCl (500 μL/vial to neutralize NaOH) and each well was rinsed two times with water (500 μL) for a total volume of 2 mL/vial.
Data was obtained, in triplicate, for both control and experimental samples. Control (100%) data was obtained from maximally stimulated cells, as the result of growth factor or serum stimulation. Experimental data was obtained from cells maximally stimulated with growth factor or serum and treated with compound. Data are expressed as an IC50 in Table I below.
(In general: Incorporation of labelled thymidine or its analogues reports DNA synthesis.)

In the case of “5-(Deca-O-acetyl-β-D-maltotriosyloxymethyl)-2-chloro-1-nitrobenzene [Example 1]”, the IC50 in data set [1] turned out to be 1.8 µM. By melting point is commonly meant the temperature, or range, at which the solid turns liquid. In turn, `Nc1cc(COC2OC(CO)C(OC3OC(CO)C(OC4OC(CO)C(O)C(O)C4O)C(O)C3O)C(O)C2O)ccc1Cl` [Example 5, 5-(β-D-maltotriosyloxymethyl)-2-chloro-phenylamine] gave a melting point of 95 to 134 °C. In addition, the inhibition at 500 µM in data set [1] was determined as 25%. “N-[5-(Deca-O-acetyl-β-D-maltotriosyloxymethyl)-2-chloro-phenyl]-acetamide [Example 2]”: the IC50 in data set [1] turned out to be 22.5 µM. The molecule `CC(=O)Nc1cc(COC2OC(CO)C(OC3OC(CO)C(OC4OC(CO)C(O)C(O)C4O)C(O)C3O)C(O)C2O)ccc1Cl` [Example 3, N-[5-(β-D-maltotriosyloxymethyl)-2-chloro-phenyl]-acetamide] gave a melting point of 135 to 148 °C. Moreover, the inhibition at 500 µM in data set [1] was found to be 10%. With “N-[5-(Deca-O-sulfo-β-D-maltotriosyloxymethyl)-2-chloro-phenyl]-acetamide decasodium salt [Example 4]”, the IC50 in data set [1] came to 112 µM.
